According to ChEMBL document CHEMBL1201862, “PubChem BioAssay data set” (2004):
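Protocol summary: plate cells (96-well), add compound at 5 concentrations, incubate 48 h, interpolate endpoints linearly. GI50 is the concentration that inhibits growth by half.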 Active and inactive are the calls of the source. Rule as the data show it: active = GI50 up to about 1.1 µM and inactive = higher.

How the values were obtained:
Experiment in all cases: growth of human tumour cells (NCI), 48 h
U-251 = test system: U-251
MCF7 = test system: MCF7
UACC-257 = test system: UACC-257
SK-MEL-28 = test system: SK-MEL-28
OVCAR-8 = test system: OVCAR-8
BT-549 = test system: BT-549
SF-295 = test system: SF-295
NCI/ADR-RES = test system: NCI/ADR-RES
HCT-15 = test system: HCT-15
PC-3 = test system: PC-3
SK-MEL-2 = test system: SK-MEL-2
SF-539 = test system: SF-539
SNB-19 = test system: SNB-19
DLD-1 = test system: DLD-1
M19-MEL = test system: M19-MEL
SNB-78 = test system: SNB-78
DMS-273 = test system: DMS-273
XF498 = test system: XF498
LXFL 529 = test system: LXFL 529

Measured: GI50

O=C(N/N=C1\C(=O)Nc2ccc(Br)cc21)/C(O)=C/C(=O)c1ccc(Cl)cc1
64.4 µM: HCT-15
inactive: U-251 43.6 µM | MCF7 44.4 µM | UACC-257 > 100 µM | SK-MEL-28 51.6 µM | OVCAR-8 89.3 µM | BT-549 35.5 µM | SF-295 54 µM | NCI/ADR-RES > 100 µM | PC-3 77.1 µM | SK-MEL-2 18.7 µM | SF-539 71.3 µM | SNB-19 50.4 µM

Cc1nc2ccc(S(=O)(=O)Nc3nccs3)cc2c(=O)n1NS(=O)(=O)c1nccs1
> 100 µM: HCT-15
inactive: U-251 > 100 µM | MCF7 37.4 µM | UACC-257 > 100 µM | SK-MEL-28 > 100 µM | OVCAR-8 > 100 µM | BT-549 > 100 µM | SF-295 58.7 µM | NCI/ADR-RES > 100 µM | PC-3 86.9 µM | SK-MEL-2 > 100 µM | SF-539 > 100 µM | SNB-19 > 100 µM

CC(C)Oc1cccc(N2C(n3ccnc3)=Nc3ccncc3S2(=O)=O)c1
inactive: U-251 15.4 µM | MCF7 10.1 µM | UACC-257 16.4 µM | SK-MEL-28 17.9 µM | OVCAR-8 14.5 µM | BT-549 15.5 µM | SF-295 34.9 µM | NCI/ADR-RES 21 µM | PC-3 10.8 µM | SK-MEL-2 13.1 µM | SF-539 6.31 µM | SNB-19 20.5 µM
13.6 µM: HCT-15

CN(C)/N=C(/c1nc2ccc(Cl)cc2nc1O)C(O)c1ccc(C(O)/C(=N\N(C)C)c2nc3ccc(Cl)cc3nc2O)cc1 (stereo unspecified)
inactive: DLD-1 > 100 µM | UACC-257 > 100 µM | SK-MEL-28 > 100 µM | OVCAR-8 > 100 µM | SF-295 > 100 µM | SK-MEL-2 > 100 µM | M19-MEL > 100 µM | SF-539 > 100 µM | SNB-19 > 100 µM

COc1cc(C2C(C(=O)NCc3ccccc3)=C(C)NC(C)=C2C(=O)NCc2ccccc2)ccc1O
27.6 µM: HCT-15
inactive: U-251 28.6 µM | SNB-78 32.8 µM | UACC-257 44.1 µM | SK-MEL-28 34.5 µM | DMS-273 29.4 µM | OVCAR-8 38.3 µM | SF-295 46 µM | XF498 61.5 µM | SK-MEL-2 22.3 µM | M19-MEL 39.4 µM | SF-539 20.9 µM | SNB-19 29.9 µM | LXFL 529 28.6 µM

CCCCCCCC(=O)OCC1OC(n2cc(F)c(=O)[nH]c2=O)C(NC(=O)OCc2ccccc2)C(OC(=O)CCCCCCC)C1O (stereo unspecified)
active: SNB-19 0.11 µM
inactive: U-251 22.9 µM | SNB-78 41.9 µM | UACC-257 39.7 µM | SK-MEL-28 36.5 µM | DMS-273 15.3 µM | OVCAR-8 34 µM | SF-295 57 µM | SK-MEL-2 21.6 µM | M19-MEL 23.6 µM | SF-539 26.3 µM | LXFL 529 21.3 µM
26.5 µM: HCT-15

CCOC(=O)C(NC(=O)N(C1=NCC(C)S1)C1CCCCC1)(OC)C(F)(F)F (stereo unspecified)
inactive: U-251 22.6 µM | MCF7 23.4 µM | UACC-257 56.5 µM | SK-MEL-28 47.2 µM | OVCAR-8 70.5 µM | BT-549 32.3 µM | SF-295 49.8 µM | NCI/ADR-RES 65.5 µM | PC-3 30.8 µM | SK-MEL-2 34 µM | SF-539 32.3 µM | SNB-19 49.3 µM
30.1 µM: HCT-15

O=C1NC2(CCCCC2)C2CCCCC(O)C12 (stereo unspecified)
> 100 µM: HCT-15
inactive: DLD-1 > 100 µM | U-251 > 100 µM | SNB-78 > 100 µM | UACC-257 > 100 µM | SK-MEL-28 > 100 µM | DMS-273 > 100 µM | OVCAR-8 > 100 µM | SF-295 > 100 µM | SK-MEL-2 > 100 µM | M19-MEL > 100 µM | SF-539 > 100 µM | SNB-19 > 100 µM | LXFL 529 > 100 µM

CC1(c2nc3ccccc3[nH]2)CCC(C#N)C(C)(C)O1 (stereo unspecified)
inactive: U-251 > 100 µM | MCF7 > 100 µM | UACC-257 > 100 µM | SK-MEL-28 > 100 µM | OVCAR-8 > 100 µM | BT-549 > 100 µM | SF-295 > 100 µM | NCI/ADR-RES > 100 µM | PC-3 > 100 µM | SK-MEL-2 > 100 µM | SF-539 > 100 µM | SNB-19 > 100 µM
> 100 µM: HCT-15

CS(=O)(=O)c1n[nH]c2nc(O)nc(O)c12
> 10 µM: HCT-15
inactive: U-251 > 10 µM | MCF7 > 10 µM | UACC-257 > 10 µM | SK-MEL-28 > 10 µM | OVCAR-8 > 10 µM | BT-549 > 10 µM | SF-295 > 10 µM | NCI/ADR-RES > 10 µM | PC-3 > 10 µM | SK-MEL-2 > 10 µM | SF-539 > 10 µM | SNB-19 > 10 µM

S=C(S)N1CCN(c2ccccc2)CC1
inactive: U-251 48.5 µM | MCF7 > 100 µM | UACC-257 > 100 µM | SK-MEL-28 45.9 µM | OVCAR-8 > 100 µM | BT-549 > 100 µM | SF-295 > 100 µM | NCI/ADR-RES > 100 µM | PC-3 > 100 µM | SK-MEL-2 37.9 µM | SF-539 > 100 µM | SNB-19 > 100 µM
> 100 µM: HCT-15
